Results from patent US20050197350A1, “Novel quinoline, tetrahydroquinazoline, and pyrimidine derivatives and methods of treatment related to the use thereof” (TAISHO PHARMACEUTICAL CO., LTD., priority 2003, published 2005).

What follows are compounds tested on MCH receptors (assay: MCH receptor activity class (method not given)). Conditions: class by percent of control at 10^-7 M or IC50.

Question: `Cc1cccc(C(=O)NC[C@H]2CC[C@@H](Nc3nc4c(c(N(C)C)n3)CCCC4)CC2)c1` [compound 612] was tested. Which class did it give?
Answer: Its class is 3 (Class 3 The value of percent of control at 10^−7 M was more than 60% or the value of IC50 was more than 200 nM.).

Question: With `Cc1ccc(C(=O)NC[C@H]2CC[C@@H](Nc3nc4c(c(N(C)C)n3)CCCC4)CC2)cc1` [compound 613] as the compound, how does the class read?
Answer: Its class is 3 (Class 3 The value of percent of control at 10^−7 M was more than 60% or the value of IC50 was more than 200 nM.).

Question: Which class does the source give for `CN(C)c1nc(N[C@H]2CC[C@@H](CNC(=O)c3cccs3)CC2)nc2c1CCCC2` [compound 614] here?
Answer: Its class is 3 (Class 3 The value of percent of control at 10^−7 M was more than 60% or the value of IC50 was more than 200 nM.).

Question: With `CN(C)c1nc(N[C@H]2CC[C@@H](CNC(=O)Cc3cccs3)CC2)nc2c1CCCC2` [compound 615] as the compound, how does the class read?
Answer: The class was 3 (Class 3 The value of percent of control at 10^−7 M was more than 60% or the value of IC50 was more than 200 nM.).

Question: How did the class turn out when `CN(C)c1nc(N[C@H]2CC[C@@H](CNC(=O)c3cccc(OC(F)(F)F)c3)CC2)nc2c1CCCC2` [compound 616] was run?
Answer: Its class is 3 (Class 3 The value of percent of control at 10^−7 M was more than 60% or the value of IC50 was more than 200 nM.).

Question: How did the class turn out when `CN(C)c1nc(N[C@H]2CC[C@@H](CNC(=O)OCc3ccccc3)CC2)nc2c1CCCC2` [compound 617] was run?
Answer: The class was 3 (Class 3 The value of percent of control at 10^−7 M was more than 60% or the value of IC50 was more than 200 nM.).

Question: For `CN(C)c1nc(N[C@H]2CC[C@@H](CNC(=O)OCc3ccc([N+](=O)[O-])cc3)CC2)nc2c1CCCC2` [compound 618], which class is on record?
Answer: Its class is 3 (Class 3 The value of percent of control at 10^−7 M was more than 60% or the value of IC50 was more than 200 nM.).

Question: With `Cc1cc(C(=O)NC[C@H]2CC[C@@H](Nc3nc4c(c(N(C)C)n3)CCCC4)CC2)ccc1Br` [compound 619] as the compound, how does the class read?
Answer: The class was 3 (Class 3 The value of percent of control at 10^−7 M was more than 60% or the value of IC50 was more than 200 nM.).

Question: For `CN(C)c1nc(N[C@H]2CC[C@@H](CNC(=O)c3cccc(I)c3)CC2)nc2c1CCCC2` [compound 620], which class is on record?
Answer: Its class is 3 (Class 3 The value of percent of control at 10^−7 M was more than 60% or the value of IC50 was more than 200 nM.).

Question: How did the class turn out when `CN(C)c1nc(N[C@H]2CC[C@@H](CNC(=O)c3cccc(Cl)c3F)CC2)nc2c1CCCC2` [compound 621] was run?
Answer: Its class is 3 (Class 3 The value of percent of control at 10^−7 M was more than 60% or the value of IC50 was more than 200 nM.).

Question: How did the class turn out when `Cc1ccc(C(=O)NC[C@H]2CC[C@@H](Nc3nc4c(c(N(C)C)n3)CCCC4)CC2)c(F)c1F` [compound 622] was run?
Answer: Its class is 3 (Class 3 The value of percent of control at 10^−7 M was more than 60% or the value of IC50 was more than 200 nM.).

Question: For `CN(C)c1nc(N[C@H]2CC[C@@H](CNC(=O)c3ccc(F)cc3Cl)CC2)nc2c1CCCC2` [compound 623], which class is on record?
Answer: Its class is 3 (Class 3 The value of percent of control at 10^−7 M was more than 60% or the value of IC50 was more than 200 nM.).

Question: Which class does the source give for `CN(C)c1nc(N[C@H]2CC[C@@H](CNC(=O)c3ccc(F)c(Cl)c3F)CC2)nc2c1CCCC2` [compound 624] here?
Answer: Its class is 3 (Class 3 The value of percent of control at 10^−7 M was more than 60% or the value of IC50 was more than 200 nM.).

Question: With `CN(C)c1nc(N[C@H]2CC[C@@H](CNC(=O)CSc3ccccc3)CC2)nc2c1CCCC2` [compound 625] as the compound, how does the class read?
Answer: Its class is 3 (Class 3 The value of percent of control at 10^−7 M was more than 60% or the value of IC50 was more than 200 nM.).

Question: `CN(C)c1nc(N[C@H]2CC[C@@H](CNC(=O)c3cccc(C(F)(F)F)c3F)CC2)nc2c1CCCC2` [compound 626] was tested. Which class did it give?
Answer: Its class is 3 (Class 3 The value of percent of control at 10^−7 M was more than 60% or the value of IC50 was more than 200 nM.).

Question: With `CN(C)c1nc(N[C@H]2CC[C@@H](CNC(=O)c3cc(C(F)(F)F)ccc3F)CC2)nc2c1CCCC2` [compound 627] as the compound, how does the class read?
Answer: The class was 3 (Class 3 The value of percent of control at 10^−7 M was more than 60% or the value of IC50 was more than 200 nM.).

Question: For `COc1cccc(CC(=O)NC[C@H]2CC[C@@H](Nc3nc4c(c(N(C)C)n3)CCCC4)CC2)c1` [compound 629], which class is on record?
Answer: The class was 3 (Class 3 The value of percent of control at 10^−7 M was more than 60% or the value of IC50 was more than 200 nM.).

Question: How did the class turn out when `CN(C)c1nc(N[C@H]2CC[C@@H](CNC(=O)Cc3ccc(F)cc3)CC2)nc2c1CCCC2` [compound 630] was run?
Answer: Its class is 3 (Class 3 The value of percent of control at 10^−7 M was more than 60% or the value of IC50 was more than 200 nM.).

Question: Which class does the source give for `COc1ccc(CC(=O)NC[C@H]2CC[C@@H](Nc3nc4c(c(N(C)C)n3)CCCC4)CC2)cc1` [compound 631] here?
Answer: Its class is 1 (Class 1: The value of percent of control at 10^−7 M was less than 40% or the value of IC50 was less than 50 nM.).

Question: With `Cc1cc(C(=O)NC[C@H]2CC[C@@H](Nc3nc4c(c(N(C)C)n3)CCCC4)CC2)c(C(F)(F)F)o1` [compound 632] as the compound, how does the class read?
Answer: Its class is 1 (Class 1: The value of percent of control at 10^−7 M was less than 40% or the value of IC50 was less than 50 nM.).

Question: With `Cc1cc(C(=O)NC[C@H]2CC[C@@H](Nc3nc4c(c(N(C)C)n3)CCCC4)CC2)c(C)o1` [compound 633] as the compound, how does the class read?
Answer: The class was 3 (Class 3 The value of percent of control at 10^−7 M was more than 60% or the value of IC50 was more than 200 nM.).

Question: `CCOc1ccccc1C(=O)NC[C@H]1CC[C@@H](Nc2nc3c(c(N(C)C)n2)CCCC3)CC1` [compound 634] was tested. Which class did it give?
Answer: The class was 3 (Class 3 The value of percent of control at 10^−7 M was more than 60% or the value of IC50 was more than 200 nM.).

Question: How did the class turn out when `CN(C)c1nc(N[C@H]2CC[C@@H](CNC(=O)c3ccc(F)c(Cl)c3)CC2)nc2c1CCCC2` [compound 635] was run?
Answer: Its class is 3 (Class 3 The value of percent of control at 10^−7 M was more than 60% or the value of IC50 was more than 200 nM.).

Question: How did the class turn out when `Cc1ccc(C(=O)NC[C@H]2CC[C@@H](Nc3nc4c(c(N(C)C)n3)CCCC4)CC2)cc1F` [compound 636] was run?
Answer: Its class is 3 (Class 3 The value of percent of control at 10^−7 M was more than 60% or the value of IC50 was more than 200 nM.).

Question: `CN(C)c1nc(N[C@H]2CC[C@@H](CNC(=O)CC3CCCC3)CC2)nc2c1CCCC2` [compound 637] was tested. Which class did it give?
Answer: The class was 3 (Class 3 The value of percent of control at 10^−7 M was more than 60% or the value of IC50 was more than 200 nM.).

Question: How did the class turn out when `COc1cc(OC)cc(C(=O)NC[C@H]2CC[C@@H](Nc3nc4c(c(N(C)C)n3)CCCC4)CC2)c1` [compound 638] was run?
Answer: The class was 3 (Class 3 The value of percent of control at 10^−7 M was more than 60% or the value of IC50 was more than 200 nM.).

Question: `CN(C)c1nc(N[C@H]2CC[C@@H](CNC(=O)c3ccc(C#N)cc3)CC2)nc2c1CCCC2` [compound 639] was tested. Which class did it give?
Answer: Its class is 3 (Class 3 The value of percent of control at 10^−7 M was more than 60% or the value of IC50 was more than 200 nM.).

Question: For `CN(C)c1nc(N[C@H]2CC[C@@H](CNC(=O)c3cc(C(F)(F)F)cc(C(F)(F)F)c3)CC2)nc2c1CCCC2` [compound 640], which class is on record?
Answer: Its class is 3 (Class 3 The value of percent of control at 10^−7 M was more than 60% or the value of IC50 was more than 200 nM.).

Question: `CN(C)c1nc(N[C@H]2CC[C@@H](CNC(=O)/C=C/c3ccc([N+](=O)[O-])cc3)CC2)nc2c1CCCC2` [compound 641] was tested. Which class did it give?
Answer: The class was 2 (Class 2: The value of percent of control at 10^−7 M was from 40% to 60% or the value of IC′50 was from 50 nM to 200 nM.).

Question: `CN(C)c1nc(N[C@H]2CC[C@@H](CNC(=O)Cc3ccccc3Br)CC2)nc2c1CCCC2` [compound 642] was tested. Which class did it give?
Answer: The class was 3 (Class 3 The value of percent of control at 10^−7 M was more than 60% or the value of IC50 was more than 200 nM.).

Question: `Cc1cc(C(=O)NC[C@H]2CC[C@@H](Nc3nc4c(c(N(C)C)n3)CCCC4)CC2)ccc1F` [compound 643] was tested. Which class did it give?
Answer: Its class is 2 (Class 2: The value of percent of control at 10^−7 M was from 40% to 60% or the value of IC′50 was from 50 nM to 200 nM.).
